Measurements published in patent publication US20120004182A1, “PHARMACEUTICAL COMPOSITIONS AND METHODS FOR INDUCTION AND ENHANCEMENT OF APOPTOSIS IN TUMOR CELLS” (priority 2010, published 2012).

Tested on: human breast tumors
Assay: In vivo studies in nude mice bearing s.c. tumors
Conditions: intraperitoneal, every 2 days, 10 days of treatment, 25 nmol antagonist, 1 μmol 4OH-Tamoxifen per mouse
Excerpt: Female athymic (nude) mice (CD1 nu/nu), 6 to 8 weeks old on arrival, were obtained from Charles River (Sulzfeld, Germany). The mice were housed in sterile cages in a temperature-controlled room with 12-hour light/12-hour dark schedule and were fed autoclaved chow and water ad libitum. All experiments were done according to the German ethical guidelines and the German laws for protection of animals.
Tumors were initiated by subcutaneous injection of 1×10^7 cancer cells into the right flank. After 2 weeks all animals had developed solid tumors of about 200 mm^3 and treatment was initiated. The in vivo experiments were done as follows: 25 nmol of GnRH-II antagonist of Seq. ID. No. 23 without or with 1 μmol of 40H-Tamoxifen per mouse (5 mice per group and control group) were injected intraperitoneally. Treatment was repeated every 2 days. Tumor volumes were measured. The mice were killed after 10 days of treatment. […]
The proliferation and induction of apoptosis were analyzed after treatment without or with a GnRH-II antagonist without or with co-treatment with 4OH-Tamoxifen. Nude mice bearing human breast tumors s.c. were treated without or with a GnRH-II antagonist alone or in combination with 4OH-Tamoxifen and the tumor volumes were measured.

Molecule: Ac-D-2Nal-D-4 Cpa-D-3 Pal-Ser-His-D-3 Pal-Trp-Leu-Pro-D-Ala-NH2 [GnRH II antagonist]
- tumor volume: increases

Molecule: CC/C(=C(\c1ccccc1)c1ccc(OCCN(C)C)cc1)c1ccccc1 [Tamoxifen]
- tumor volume: increases
